Measured values: US10752609B2, “GSK-3 inhibitors” (priority 2016, dated 2020)
Read-outs that look alike come from different tables or passages of the source.

Experiments:
[1] = tested on: pTau; assay: pTau assay (no method described); type: cell-based
[2] = target: GSK3β (Homo sapiens, UniProt P49841); assay: GSK3β kinase assay (Caliper LabChip3000 mobility shift, fluoresceinated peptide substrate); type: biochemical
[3] = target: GSK3α (Homo sapiens, UniProt P49840); assay: GSK3α kinase assay (Caliper LabChip3000 mobility shift, fluoresceinated peptide substrate)
Sequence of GSK3α (P49840 whole entry, species assumed): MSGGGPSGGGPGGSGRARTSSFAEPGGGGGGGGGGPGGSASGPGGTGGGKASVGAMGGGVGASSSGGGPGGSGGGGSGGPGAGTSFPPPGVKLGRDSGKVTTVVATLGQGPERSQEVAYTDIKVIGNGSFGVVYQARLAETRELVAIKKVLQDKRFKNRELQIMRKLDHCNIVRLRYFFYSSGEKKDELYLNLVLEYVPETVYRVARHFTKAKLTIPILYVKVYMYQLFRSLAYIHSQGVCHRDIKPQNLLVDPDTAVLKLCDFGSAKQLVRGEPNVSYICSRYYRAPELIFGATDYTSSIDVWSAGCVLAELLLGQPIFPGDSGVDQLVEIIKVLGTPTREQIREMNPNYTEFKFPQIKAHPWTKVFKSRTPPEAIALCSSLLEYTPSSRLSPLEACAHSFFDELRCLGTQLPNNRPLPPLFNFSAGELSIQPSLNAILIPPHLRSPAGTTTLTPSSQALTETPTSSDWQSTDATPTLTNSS

[4] = 250 pM enzyme, 20 uM ATP, 1.5 uM peptide, 20 hours room temperature, first value of cell GSK3β/GSK3α, read-out: GSK3β (nM), IC50

Sequence of GSK3β (P49841 whole entry, species assumed): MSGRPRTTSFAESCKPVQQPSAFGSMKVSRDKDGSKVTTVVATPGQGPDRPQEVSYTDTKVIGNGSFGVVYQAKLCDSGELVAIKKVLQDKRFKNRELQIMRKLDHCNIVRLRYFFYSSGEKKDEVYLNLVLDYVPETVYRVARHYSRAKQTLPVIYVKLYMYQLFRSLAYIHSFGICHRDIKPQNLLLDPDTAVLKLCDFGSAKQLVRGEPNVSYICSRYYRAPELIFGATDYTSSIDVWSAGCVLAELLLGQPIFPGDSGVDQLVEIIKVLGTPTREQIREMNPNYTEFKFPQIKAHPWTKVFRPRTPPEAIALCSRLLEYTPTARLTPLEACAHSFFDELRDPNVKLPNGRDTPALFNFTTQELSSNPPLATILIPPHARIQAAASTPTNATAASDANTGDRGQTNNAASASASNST

| SMILES | IC50 [1] | IC50 [2, 4] | IC50 [3] | IC50 [2] |
| --- | --- | --- | --- | --- |
| Cc1cc(N2CCC(F)(F)CC2)c(NC(=O)c2ccnc(Nc3ccc(Cl)cc3)n2)cn1 [Example 182, 2-((4-Chlorophenyl)amino)-N-(4-(4,4-difluoropiperidin-1-yl)-6-methylpyridin-3-yl)pyrimidine-4-carboxamide] | 220 nM | 2.5 nM | 1 nM |  |
| O=C(Nc1cnc(F)cc1N1CCC(F)(F)CC1)c1ccnc(NC2CCOCC2)n1 [Example 184, N-(4-(4,4-Difluoropiperidin-1-yl)-6-fluoropyridin-3-yl)-2-((tetrahydro-2H-pyran-4-yl)amino)pyrimidine-4-carboxamide] | 400 nM | 11 nM | 6 nM |  |
| O=C(Nc1cncc(-c2ccccc2F)c1)c1ccnc(Nc2cccc(C(F)(F)F)c2)n1 [Example 185, N-(5-(2-Fluorophenyl)pyridin-3-yl)-2-((3-(trifluoromethyl)phenyl)amino)pyrimidine-4-carboxamide] | 530 nM | 5.9 nM | 2.3 nM |  |
| O=C(Nc1cncc(-c2ccccc2F)c1)c1ccnc(NCC2CC2)n1 [Example 186, 2-((Cyclopropylmethyl)amino)-N-(5-(2-fluorophenyl)pyridin-3-yl)pyrimidine-4-carboxamide] | 5000 nM | 6 nM | 9.9 nM |  |
| O=C(Nc1cncc(-c2ccccc2F)c1)c1ccnc(Nc2cccc(OC(F)(F)F)c2)n1 [Example 187, N-(5-(2-Fluorophenyl)pyridin-3-yl)-2-((3-(trifluoromethoxy)phenyl)amino)pyrimidine-4-carboxamide] | 2500 nM | 13 nM | 7.9 nM |  |
| O=C(Nc1cncnc1OCC(F)(F)F)c1ccnc(NCC2CCC2)n1 [Example 188, 2-((Cyclobutylmethyl)amino)-N-(4-(2,2,2-trifluoroethoxy)pyrimidin-5-yl)pyrimidine-4-carboxamide] | 180 nM |  | 1 nM | 0.83 nM |
| CC(C)(C)CNc1nccc(C(=O)Nc2cncnc2OCC(F)(F)F)n1 [Example 189, 2-(Neopentylamino)-N-(4-(2,2,2-trifluoroethoxy)pyrimidin-5-yl)pyrimidine-4-carboxamide] | 410 nM | 1.43 nM | 0.8 nM |  |
| O=C(Nc1cncnc1OCC(F)(F)F)c1ccnc(NCC2CCOCC2)n1 [Example 190, 2-(((Tetrahydro-2H-pyran-4-yl)methyl)amino)-N-(4-(2,2,2-trifluoroethoxy)pyrimidin-5-yl)pyrimidine-4-carboxamide] | 190 nM |  | 2.6 nM | 3.1 nM |
| CC1(CNc2nccc(C(=O)Nc3cncnc3OCC(F)(F)F)n2)COC1 [Example 191, 2-(((3-Methyloxetan-3-yl)methyl)amino)-N-(4-(2,2,2-trifluoroethoxy)pyrimidin-5-yl)pyrimidine-4-carboxamide] | 240 nM |  | 4.3 nM | 3.3 nM |
| O=C(Nc1cncnc1OCC(F)(F)F)c1ccnc(NCC2CC2)n1 [Example 192, 2-((Cyclopropylmethyl)amino)-N-(4-(2,2,2-trifluoroethoxy)pyrimidin-5-yl)pyrimidine-4-carboxamide] | 480 nM | 4.8 nM | 4.8 nM |  |
| O=C(Nc1cncnc1)c1ccnc(Nc2cccc(-c3ccc(Cl)cc3)c2)n1 [Example 193, 2-((4′-Chloro-[1,1′-biphenyl]-3-yl)amino)-N-(pyrimidin-5-yl)pyrimidine-4-carboxamide] | 620 nM | 3.4 nM | 1.8 nM |  |
| O=C(Nc1cncnc1)c1ccnc(Nc2cccc(-c3ccccc3)c2)n1 [Example 194, 2-([1,1′-Biphenyl]-3-ylamino)-N-(pyrimidin-5-yl)pyrimidine-4-carboxamide] | 390 nM | 4.4 nM | 2.9 nM |  |
| Cc1ccccc1-c1cccc(Nc2nccc(C(=O)Nc3cncnc3)n2)c1 [Example 196, 2-((2′-Methyl-[1,1′-biphenyl]-3-yl)amino)-N-(pyrimidin-5-yl)pyrimidine-4-carboxamide] | 840 nM | 5.2 nM | 3.9 nM |  |
| O=C(Nc1cncnc1)c1ccnc(NCC2CC2c2ccc(F)cc2F)n1 (stereo not drawn) [Example 197, 2-(((2-(2,4-Difluorophenyl)cyclopropyl)methyl)amino)-N-(pyrimidin-5-yl)pyrimidine-4-carboxamide] | 5100 nM | 24 nM | 21 nM |  |
| O=C(Nc1cncnc1)c1ccnc(NCC2CC2c2ccc(F)cc2)n1 (stereo not drawn) [Example 198, 2-(((2-(4-Fluorophenyl)cyclopropyl)methyl)amino)-N-(pyrimidin-5-yl)pyrimidine-4-carboxamide] | 6500 nM | 35 nM | 28 nM |  |
| COc1cccc(C2CC2CNc2nccc(C(=O)Nc3cncnc3)n2)c1 (stereo not drawn) [Example 199, 2-(((2-(3-Methoxyphenyl)cyclopropyl)methyl)amino)-N-(pyrimidin-5-yl)pyrimidine-4-carboxamide] | 6100 nM | 40 nM | 33 nM |  |
| O=C(Nc1cncnc1)c1ccnc(NCC2CC2c2cccc(F)c2)n1 (stereo not drawn) [Example 200, 2-(((2-(3-Fluorophenyl)cyclopropyl)methyl)amino)-N-(pyrimidin-5-yl)pyrimidine-4-carboxamide] | 6400 nM | 53 nM | 59 nM |  |
| O=C(Nc1cncnc1)c1ccnc(Nc2ccccc2)n1 [Example 201, 2-(Phenylamino)-N-(pyrimidin-5-yl)pyrimidine-4-carboxamide] | 4200 nM | 71 nM | 45 nM |  |
| O=C(Nc1cncnc1)c1ccnc(N[C@H]2C[C@@H]2c2ccccc2)n1 [Example 202, 2-(((1S,2R)-2-Phenylcyclopropyl)amino)-N-(pyrimidin-5-yl)pyrimidine-4-carboxamide] | 2300 nM | 120 nM | 57 nM |  |
| O=C(Nc1cncnc1N1CCOCC1)c1ccnc(NCC2CCC2)n1 [Example 203, 2-((Cyclobutylmethyl)amino)-N-(4-morpholinopyrimidin-5-yl)pyrimidine-4-carboxamide] | 600 nM |  | 6.1 nM | 8.7 nM |
| CC(C)(C)CNc1nccc(C(=O)Nc2cncnc2N2CCOCC2)n1 [Example 204] | 1100 nM | 13 nM | 11 nM |  |
| O=C(Nc1cncnc1N1CCOCC1)c1ccnc(NCC2CC2)n1 [Example 205, 2-((Cyclopropylmethyl)amino)-N-(4-morpholinopyrimidin-5-yl)pyrimidine-4-carboxamide] | 1800 nM |  | 22 nM | 19 nM |
| O=C(Nc1cncnc1N1CCOCC1)c1ccnc(NCC2CCOCC2)n1 [Example 206, N-(4-Morpholinopyrimidin-5-yl)-2-(((tetrahydro-2H-pyran-4-yl)methyl)amino)pyrimidine-4-carboxamide] | 4700 nM | 74 nM | 99 nM |  |
